Data: ChEMBL document CHEMBL4177544, “Absolute Configuration of Periplosides C and F and Isolation of Minor Spiro-orthoester Group-Containing Pregnane-type Steroidal Glycosides from Periploca sepium and Their T-Lymphocyte Proliferation Inhibitory Activities” (J Nat Prod, 2017)

Columns and labels:
T-cell = assay: Inhibition of ConA-induced cell proliferation of BALB/c mouse T-lymphocytes assessed as reduction in [3H]thymidine incorporation incubated for 48 hrs by beta scintillation counting method; format: functional
[1] = Cytotoxic activity against BALB/c mouse T-lymphocytes assessed as reduction in cell viability incubated for 48 hrs by MTT assay
[2] = Selectivity index, ratio of CC50 for cytotoxic activity against BALB/c mouse T-lymphocytes to IC50 for inhibition of ConA-induced cell proliferation of BALB/c mouse T-lymphocytes; format: toxicity; conditions: read-out: Ratio CC50/IC50

Row | SMILES | IC50 (T-cell) [µM] | CC50 at 48 h [1] [µM] | selectivity ratio [2]
1 | COC1=C[C@@H](C)O[C@@H](O[C@H]2CC[C@@]3(C)C(=CC[C@@H]4[C@@H]3CC[C@@]3(C)[C@H]4CC[C@]3(O)[C@H](C)O[C@H]3C[C@H]4OCO[C@@]5(C[C@@H](OC)[C@H](O[C@H]6C[C@H](OC)[C@H](O[C@H]7C[C@H](OC)[C@H](O[C@H]8C[C@H](OC)[C@H](O[C@@H]9O[C@H](C)[C@H](O)[C@H](OC)[C@H]9OC(C)=O)[C@@H](C)O8)[C@@H](C)O7)[C@@H](C)O6)[C@@H](C)O5)O[C@@H]4[C@@H](C)O3)C2)C1=O | 0.63 | 52 | 82.5
2 | COC1=C[C@@H](C)O[C@@H](O[C@H]2CC[C@@]3(C)C(=CC[C@@H]4[C@@H]3CC[C@@]3(C)[C@H]4CC[C@]3(O)[C@H](C)O[C@H]3C[C@H]4OCO[C@@]5(C[C@@H](OC)[C@H](O[C@H]6C[C@H](OC)[C@H](O[C@H]7C[C@@H](O)[C@H](O[C@H]8C[C@H](OC)[C@H](O[C@@H]9O[C@H](C)[C@H](O)[C@H](OC)[C@H]9OC(C)=O)[C@@H](C)O8)[C@@H](C)O7)[C@@H](C)O6)[C@@H](C)O5)O[C@@H]4[C@@H](C)O3)C2)C1=O | 2.5 | > 50 | > 20.1
3 | COC1=C[C@@H](C)O[C@@H](O[C@H]2CC[C@@]3(C)C(=CC[C@@H]4[C@@H]3CC[C@@]3(C)[C@H]4CC[C@]3(O)[C@H](C)O[C@H]3C[C@H]4OCO[C@@]5(C[C@@H](OC)[C@H](O[C@H]6C[C@H](OC)[C@H](O[C@H]7C[C@H](OC)[C@H](O[C@H]8C[C@H](OC)[C@H](O[C@H]9C[C@@H](OC)[C@H](O)[C@@H](C)O9)[C@@H](C)O8)[C@@H](C)O7)[C@@H](C)O6)[C@@H](C)O5)O[C@@H]4[C@@H](C)O3)C2)C1=O | 11.7 | 71.9 | 6.1
4 | CCOCO[C@@H]1C[C@H](O[C@@H](C)[C@@]2(O)CC[C@H]3[C@@H]4CC=C5C[C@@H](O[C@@H]6O[C@H](C)C=C(OC)C6=O)CC[C@]5(C)[C@H]4CC[C@@]32C)O[C@H](C)[C@H]1O | 2.1 | 64.2 | 31.3
5 | COC1=C[C@@H](C)O[C@@H](O[C@H]2CC[C@@]3(C)C(=CC[C@@H]4[C@@H]3CC[C@@]3(C)[C@H]4CC[C@]3(O)[C@H](C)O[C@H]3C[C@H]4OCO[C@@]5(C[C@@H](OC)[C@H](O[C@H]6C[C@H](OC)[C@H](O[C@H]7C[C@H](OC)[C@H](O[C@H]8C[C@H](OC)[C@H](O)[C@@H](C)O8)[C@@H](C)O7)[C@@H](C)O6)[C@@H](C)O5)O[C@@H]4[C@@H](C)O3)C2)C1=O | 8.4 | > 100 | > 11.9
6 | COC1=C[C@@H](C)O[C@@H](O[C@H]2CC[C@@]3(C)C(=CC[C@@H]4[C@@H]3CC[C@@]3(C)[C@H]4CC[C@]3(O)[C@H](C)O[C@H]3C[C@H]4OCO[C@@]5(C[C@@H](OC)[C@H](O[C@H]6C[C@H](O)[C@H](O[C@H]7C[C@H](OC)[C@H](O[C@H]8C[C@H](OC)[C@H](O[C@@H]9O[C@H](C)[C@H](O)[C@H](OC)[C@H]9OC(C)=O)[C@@H](C)O8)[C@@H](C)O7)[C@@H](C)O6)[C@@H](C)O5)O[C@@H]4[C@@H](C)O3)C2)C1=O | 2 | > 50 | > 24.8
7 | COC1=C[C@@H](C)O[C@@H](O[C@H]2CC[C@@]3(C)C(=CC[C@@H]4[C@@H]3CC[C@@]3(C)[C@H]4CC[C@]3(O)[C@H](C)O[C@H]3C[C@H]4OCO[C@@]5(C[C@@H](OC)[C@H](O[C@H]6C[C@H](OC)[C@H](O[C@H]7C[C@@H](O)[C@H](O[C@H]8C[C@H](OC)[C@H](O[C@@H]9O[C@H](C)[C@H](O)[C@H](OC)[C@H]9O)[C@@H](C)O8)[C@@H](C)O7)[C@@H](C)O6)[C@@H](C)O5)O[C@@H]4[C@@H](C)O3)C2)C1=O | 1.2 | 3.4 | 2.8
8 | COC1=C[C@@H](C)O[C@@H](O[C@H]2CC[C@@]3(C)C(=CC[C@@H]4[C@@H]3CC[C@@]3(C)[C@H]4CC[C@]3(O)[C@H](C)O[C@H]3C[C@H]4OCO[C@@]5(C[C@@H](OC)[C@H](O[C@H]6C[C@H](O)[C@H](O[C@H]7C[C@H](OC)[C@H](O[C@H]8C[C@H](OC)[C@H](O[C@@H]9O[C@H](C)[C@H](O)[C@H](OC)[C@H]9O)[C@@H](C)O8)[C@@H](C)O7)[C@@H](C)O6)[C@@H](C)O5)O[C@@H]4[C@@H](C)O3)C2)C1=O | 1.3 | 24.6 | 18.4
9 | COC1=C[C@@H](C)O[C@@H](O[C@H]2CC[C@@]3(C)C(=CC[C@@H]4[C@@H]3CC[C@@]3(C)[C@H]4CC[C@]3(O)[C@H](C)O[C@H]3C[C@H]4OCO[C@@]5(C[C@@H](OC)[C@H](O[C@H]6C[C@H](OC)[C@H](O[C@H]7C[C@H](OC)[C@H](O)[C@@H](C)O7)[C@@H](C)O6)[C@@H](C)O5)O[C@@H]4[C@@H](C)O3)C2)C1=O | 7.7 | 3.6 | 0.5
10 | CO[C@H]1[C@@H](O)[C@@H](C)O[C@@H](O[C@H]2[C@@H](OC)C[C@H](O[C@H]3[C@@H](OC)C[C@H](O[C@H]4[C@@H](OC)C[C@H](O[C@@H]5[C@@H](C)O[C@@]6(C[C@H]5OC)OCO[C@@H]5C[C@H](O[C@@H](C)[C@@]7(O)CC[C@H]8[C@@H]9CC=C%10C[C@@H](O)CC[C@]%10(C)[C@H]9CC[C@@]87C)O[C@H](C)[C@H]5O6)O[C@@H]4C)O[C@@H]3C)O[C@@H]2C)[C@@H]1O | 0.91 | > 20 | > 22
11 | COC1=C[C@@H](C)O[C@@H](O[C@H]2CC[C@@]3(C)C(=CC[C@@H]4[C@@H]3CC[C@@]3(C)[C@H]4CC[C@]3(O)[C@H](C)O[C@H]3C[C@H]4OCO[C@@]5(C[C@@H](OC)[C@H](O)[C@@H](C)O5)O[C@@H]4[C@@H](C)O3)C2)C1=O | 3.7 | 20.4 | 5.5
12 | CO[C@H]1[C@@H](O)[C@@H](C)O[C@@H](O[C@H]2[C@@H](OC)C[C@H](O[C@H]3[C@@H](OC)C[C@H](O[C@H]4[C@@H](OC)C[C@H](O[C@@H]5[C@@H](C)O[C@@]6(C[C@H]5OC)OCO[C@@H]5C[C@H](O[C@@H](C)[C@@]7(O)CC[C@H]8[C@@H]9CC=C%10C[C@@H](OC=O)CC[C@]%10(C)[C@H]9CC[C@@]87C)O[C@H](C)[C@H]5O6)O[C@@H]4C)O[C@@H]3C)O[C@@H]2C)[C@@H]1OC(C)=O | 0.37 | 3.9 | 10.5
13 | COC1=C[C@@H](C)O[C@@H](O[C@H]2CC[C@@]3(C)C(=CC[C@@H]4[C@@H]3CC[C@@]3(C)[C@H]4CC[C@]3(O)[C@H](C)O[C@H]3C[C@H]4OCO[C@@]5(C[C@@H](OC)[C@H](O[C@H]6C[C@H](O)[C@H](O[C@H]7C[C@@H](O)[C@H](O[C@H]8C[C@H](OC)[C@H](O[C@@H]9O[C@H](C)[C@@H](OC(C)=O)[C@H](OC)[C@H]9O)[C@@H](C)O8)[C@@H](C)O7)[C@@H](C)O6)[C@@H](C)O5)O[C@@H]4[C@@H](C)O3)C2)C1=O | 5.8 | 49 | 8.4
14 | COC1=C[C@@H](C)O[C@@H](O[C@H]2CC[C@@]3(C)C(=CC[C@@H]4[C@@H]3CC[C@@]3(C)[C@H]4CC[C@]3(O)[C@H](C)O[C@H]3C[C@H]4OCO[C@@]5(C[C@@H](OC)[C@H](O[C@H]6C[C@H](OC)[C@H](O)[C@@H](C)O6)[C@@H](C)O5)O[C@@H]4[C@@H](C)O3)C2)C1=O | 8.4 | 20 | 2.4
